Source: patent US20230263822A1, “MODULATION OF FACTOR 11 EXPRESSION” (Ionis Pharmaceuticals, Inc., priority 2008, published 2023)

Assays:
Format in all cases: in vivo, BALB/c mice
blood coagulation [1] = experiment: PT and aPTT vs warfarin (Example 13); settings: for PT INR / aPTT INR: PPP two days after final dose
Protocol: In a control group, BALB/c mice were treated with PBS, administered subcutaneously mice twice a week for 3 weeks.
Two days after the final dose was administered, PPP was collected and PT and aPTT assays were performed.
PT and aPTT values provided in Table 16 are reported as International Normalized Ratio (INR) values. […] This ratio was then raised to the power of the International Sensitivity Index (ISI) of the tissue factor used.

blood coagulation [2] = experiment: Sense-oligonucleotide antidote: aPTT (Example 23); settings: ISIS 404071 40 mg/kg s.c. twice a week for three weeks, ISIS 418026 90 mg/kg where given
Protocol: The effect of the specific sense oligonucleotide to ISIS 404071 as an antidote was tested in BALB/c mice. In a first cohort, ISIS 404071 was administered subcutaneously to BALB/c mice twice a week for three weeks at a dose of 40 mg/kg. In a second cohort, ISIS 404057 was administered subcutaneously to BALB/c mice twice a week for three weeks at a dose of 40 mg/kg. The ISIS 404071 specific antidote, ISIS 418026 ([…]; complementary to ISIS 404071), incorporated herein as SEQ ID NO: 13, was administered to both cohorts subcutaneously in a single injection of 90 mg/kg 48 hours after the final treatment of ISIS 404071 or 404057. In a third cohort, ISIS 404071 was administered subcutaneously to BALB/c mice twice a week for three weeks at a dose of 40 mg/kg. Following the last treatment of ISIS 404071, mice were injected subcutaneously injected with PBS. In a fourth cohort, ISIS 404057 was administered subcutaneously to BALB/c mice twice a week for three weeks at a dose of 40 mg/kg. Following the last treatment of ISIS 404057, mice were injected subcutaneously injected with PBS. Following antidote administration, a set of 4 mice from each cohort were sacrificed at 12 hours, 1 day, 2 days, 3 days, 7 days, and 14 days. Whole liver was collected for RNA analysis and PPP was collected for aPTT analysis.

blood coagulation [3] = experiment: PT and aPTT, combination with Apixaban (Example 20)
Protocol: PT and aPTT were measured using PPP from mice treated with ISIS 404071 in combination with Apixaban. In the first cohort, ISIS 404071 was administered subcutaneously to BALB/c mice at a dosage of 25 mg/kg twice a week for 3 weeks. Plasma was collected from these mice 5 days after receiving the last dose of ISIS 404071. In the second cohort, Apixaban was administered subcutaneously to BALB/c mice at a dosage of 6 mg/kg twice daily for three days. Plasma was collected from these mice 20 minutes after receiving the last dose of Apixaban. In the third cohort, ISIS 404071 was administered subcutaneously to BALB/c mice at a dosage of 20 mg/kg twice a week for 3 weeks, and Apixaban was administered subcutaneously at a dosage of 6 mg/kg twice daily on the last three days of ISIS 404071 treatment. Plasma was collected from these mice 20 minutes after receiving the last dose of Apixaban. In a fourth cohort, PBS was administered subcutaneously twice a week for three weeks, as a control. Plasma was collected 5 days after the last dose of PBS.
PT and aPTT values provided in Table 32 are reported as International Normalized Ratio (INR) values. […] However, Apixaban and Apixaban combined with ISIS 404071 increased PT. Also shown in Table 32, Apixaban, ISIS 404071, and ISIS 404071 combined with Apixaban increase aPTT.

[4] = Collagenase-induced intracerebral hemorrhage model: hemorrhage volume, neurologic deficit score, mortality (Example 25)
Protocol: In a first cohort, ISIS 404071 was administered subcutaneously to BALB/c mice twice a week for two weeks at a dose 40 mg/kg. […] In a third cohort, ISIS 421208 ([…], 8 mismatches to murine Factor 11, incorporated herein as SEQ ID NO: 14) was administered subcutaneously to BALB/c mice twice a week for two weeks at a dose 40 mg/kg. In a fourth cohort, PBS was administered to BALB/c mice twice a week for two weeks.
Two days after receiving their final dose, all mice in all cohorts were anesthetized with […] of avertin. Next, the mice were injected at −1 mm AP, 1 mm R ML, −4 mm DV from bregma flat skull with a 10 μL Hamilton syringe containing 0.075 U collagenase (150 U/mL). Collagenase was delivered over 5 minutes and the needle was kept in place for an additional 5 minutes to prevent reflux. The mice were then analyzed for hemorrhagic size, neurologic deficit score, and mortality.
Table 37 presents the hemorrhage volume detected in mice after collagenase treatment, Table 38 presents the neurologic deficit score of the mice, and Table 39 presents the mortality rate of the mice. Neurological deficit is measured by a standard scoring system where no deficiency is zero and severe deficit is five.

[5] = BALB/c mice, ISIS 404071 1.25-40 mg/kg, warfarin 0.5-5 mg/kg
[6] = ISIS 404071 1.25 mg/kg subcutaneously twice a week for 3 weeks
[7] = ISIS 404071 5 mg/kg subcutaneously twice a week for 3 weeks
[8] = ISIS 404071 10 mg/kg subcutaneously twice a week for 3 weeks
[9] = ISIS 404071 20 mg/kg subcutaneously twice a week for 3 weeks
[10] = ISIS 404071 40 mg/kg subcutaneously twice a week for 3 weeks
[11] = BALB/c mice, ISIS 404071 25 or 20 mg/kg, Apixaban 6 mg/kg twice daily
[12] = ISIS 404071 alone 25 mg/kg s.c. twice a week for 3 weeks, Apixaban alone 6 mg/kg s.c. twice daily for three days, combination 20 mg/kg + 6 mg/kg
[13] = collagenase-induced intracerebral hemorrhage, 40 mg/kg twice a week for two weeks

In the case of “ISIS 404071: antisense oligonucleotide targeted to murine Factor 11 mRNA, TGGTAATCCACTTTCAGAGG, target start site 869 (chemistry not given here)”, the “PT” value (blood coagulation [1]; [5]) is reported as “did not significantly affect PT”, the “aPTT” value (blood coagulation [1]; [5]) is reported as “did prolong aPTT” and the “PT INR” value (blood coagulation [1]; [6]) is reported as 0.99 INR. The “aPTT INR” value (blood coagulation [1]; [6]) was 0.98 INR, the “PT INR” value (blood coagulation [1]; [7]) was 1.07 INR and the “aPTT INR” value (blood coagulation [1]; [7]) was 1.09 INR. The “PT INR” value (blood coagulation [1]; [8]) was 1.08 INR, the “aPTT INR” value (blood coagulation [1]; [8]) was 1.29 INR and the “PT INR” value (blood coagulation [1]; [9]) was 1.09 INR. The “aPTT INR” value (blood coagulation [1]; [9]) was 1.32 INR, the “PT INR” value (blood coagulation [1]; [10]) was 0.98 INR and the “aPTT INR” value (blood coagulation [1]; [10]) was 1.64 INR. The “aPTT INR” value (blood coagulation [2]; 12 hours after antidote/PBS) was 1.51 INR, the “aPTT INR” value (blood coagulation [2]; 1 day after antidote/PBS) was 1.30 INR and the “aPTT INR” value (blood coagulation [2]; 2 day after antidote/PBS) was 1.35 INR. The “aPTT INR” value (blood coagulation [2]; 3 day after antidote/PBS) was 1.27 INR, the “aPTT INR” value (blood coagulation [2]; 7 day after antidote/PBS) was 1.18 INR and the “aPTT INR” value (blood coagulation [2]; 14 day after antidote/PBS) was 1.05 INR. The “PT” value (blood coagulation [3]; [11]) was “not significantly affected”, the “aPTT” value (blood coagulation [3]; [11]) was “increase aPTT” and the “PT INR” value (blood coagulation [3]; [12]) was 0.95 INR. The “aPTT INR” value (blood coagulation [3]; [12]) was 1.31 INR, the “Hemorrhagic volume after collagenase treatment” value ([4]; 40 mg/kg s.c. twice a week for two weeks) was 38 mm^3 and the “Neurologic Deficit Score after collagenase treatment” value ([4]; 40 mg/kg s.c. twice a week for two weeks, score zero (no deficiency) to five (severe deficit)) was 3.8. For the same substance, the “% mortality after collagenase treatment” value ([4]; ISIS oligonucleotides 40 mg/kg s.c., warfarin 2 mg/kg intraperitoneally, twice a week for two weeks) was 20%, the “hemorrhagic size” value [4, 13] was “did not have a significant effect” and the “mortality” value [4, 13] was “did not have a significant effect”. For the same substance, the “neurologic deficit score” value [4, 13] was “did not have a significant effect”.
